# “And” between values parts separate entries of the source, which are not always exact repeats. Identical values can stand only once.
# What was measured:
# [1] = system: Licht. Ramosa; assay: MIC against moulds; assay type: cell-based; details: 6 isolates
# [2] = system: A. fumigatus; assay: MIC against moulds; assay type: cell-based; details: 5 isolates
# [3] = system: Purpureocillium lilacinum; assay: MIC against rare moulds resistant to AmB; assay type: cell-based; details: 6 isolates
# [4] = system: A. calldoustus; assay: MIC against moulds; assay type: cell-based; details: 6 isolates
# [5] = system: moulds (3 strains); assay: MICavg moulds (3 strains); assay type: cell-based; set-up: unit not given beside the values
# [6] = UV-Vis sterol binding assay
# Protocol: However, an alternative method was developed for reproducible formation of homogenous AmB and C2′epiAmB sterol sponge aggregates in vitro. Using these preparations, a quantitative UV-Vis and Principle Component (PCA) based assay for determining the apparent KDs for the binding of AmB and C2′epiAmB to ergosterol and cholesterol (FIGS. 5A-5D) was developed.
# UV-Vis Binding Assay (FIG. 21A): The protocol for the sterol binding assay (UV-Vis) was developed in our lab. Compounds were dissolved in DMSO at a final concentration of 1 mM. Sterol were first dissolved in CHCl3 (>200 mM) and then diluted to 1 mM concentration with DMSO. To synthesize the complex 1 ul of compound solution was taken in a clean eppendorf tube (2 ml) and sterol solution (volume depends on the stoichiometry) was added to it and the volume was made up to 20 ul with DMSO. 0.98 ml of PBS buffer was added to the Eppendorf tube and mixed properly. The absorbance of the solution was measured after 30 mins of incubation.
# [7] = system: Histoplasma capsulatum; assay: microbe, parasite or virus in culture; assay type: cell-based
# [8] = biological target: CYP2D6 (Homo sapiens, UniProt P10635); assay: CYP Inhibition; details: for P450 2D6 % Inhibition: 10 um, human liver microsome
# Chain of CYP2D6 (P10635 whole entry): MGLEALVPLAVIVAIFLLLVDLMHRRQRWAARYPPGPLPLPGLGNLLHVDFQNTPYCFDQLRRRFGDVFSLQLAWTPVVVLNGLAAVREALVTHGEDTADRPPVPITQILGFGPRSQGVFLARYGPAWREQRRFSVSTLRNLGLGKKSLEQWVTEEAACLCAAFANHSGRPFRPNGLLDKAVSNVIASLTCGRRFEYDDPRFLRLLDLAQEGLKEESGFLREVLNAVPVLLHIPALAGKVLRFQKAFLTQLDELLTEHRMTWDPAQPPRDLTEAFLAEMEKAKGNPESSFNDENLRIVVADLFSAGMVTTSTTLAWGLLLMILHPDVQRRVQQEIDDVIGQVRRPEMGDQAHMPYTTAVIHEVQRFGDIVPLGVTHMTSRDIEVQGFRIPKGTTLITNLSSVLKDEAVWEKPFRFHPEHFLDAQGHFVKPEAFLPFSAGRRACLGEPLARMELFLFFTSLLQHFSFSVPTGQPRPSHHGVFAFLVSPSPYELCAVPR
# Protocol: (§1) The working solutions of the test compounds and the standard inhibitors were prepared in DMSO (100× final concentration). 20 ul of substrate solution (5 in 1 cocktail) was added to the wells followed by 2 ul test compound solution was added. 158 ul of human liver microsome (HLM) was added to all the wells of the incubated plate and warmed to 37° C. for 10 mins. 20 ul of NADPH cofactor solution was then added to all the wells of incubated plate and incubated at 37° C. for 10 mins. At the time point the reaction was quenched by adding 400 uL of cold stop solution. The samples were centrifuged at 4000 rpm for 20 mins to precipitate protein. 100 ul supernatant was diluted with 100 ul of ultra pure water and analyzed using LCMS.
# [9] = biological target: CYP3A4 (Homo sapiens, UniProt P08684); assay: CYP Inhibition; details: for P450 3A4 % Inhibition: 10 um, human liver microsome
# Chain of CYP3A4 (P08684 whole entry): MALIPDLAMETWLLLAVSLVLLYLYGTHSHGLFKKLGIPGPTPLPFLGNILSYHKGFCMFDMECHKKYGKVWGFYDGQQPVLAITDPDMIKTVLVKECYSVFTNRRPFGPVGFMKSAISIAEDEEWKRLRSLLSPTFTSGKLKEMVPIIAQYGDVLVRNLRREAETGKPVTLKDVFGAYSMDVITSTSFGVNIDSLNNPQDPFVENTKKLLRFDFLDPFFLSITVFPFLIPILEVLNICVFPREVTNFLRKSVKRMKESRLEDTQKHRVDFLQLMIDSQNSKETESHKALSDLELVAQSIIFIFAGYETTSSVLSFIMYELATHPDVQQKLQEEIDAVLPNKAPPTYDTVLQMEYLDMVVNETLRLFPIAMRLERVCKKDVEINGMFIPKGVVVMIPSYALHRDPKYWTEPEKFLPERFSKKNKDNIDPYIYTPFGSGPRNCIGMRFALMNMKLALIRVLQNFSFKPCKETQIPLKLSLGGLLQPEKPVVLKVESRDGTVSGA
# Protocol: as §1
# [10] = biological target: CYP2C9 (Homo sapiens, UniProt P11712); assay: CYP Inhibition; details: for P450 2C9 % Inhibition: 10 um, human liver microsome
# Chain of CYP2C9 (P11712 whole entry): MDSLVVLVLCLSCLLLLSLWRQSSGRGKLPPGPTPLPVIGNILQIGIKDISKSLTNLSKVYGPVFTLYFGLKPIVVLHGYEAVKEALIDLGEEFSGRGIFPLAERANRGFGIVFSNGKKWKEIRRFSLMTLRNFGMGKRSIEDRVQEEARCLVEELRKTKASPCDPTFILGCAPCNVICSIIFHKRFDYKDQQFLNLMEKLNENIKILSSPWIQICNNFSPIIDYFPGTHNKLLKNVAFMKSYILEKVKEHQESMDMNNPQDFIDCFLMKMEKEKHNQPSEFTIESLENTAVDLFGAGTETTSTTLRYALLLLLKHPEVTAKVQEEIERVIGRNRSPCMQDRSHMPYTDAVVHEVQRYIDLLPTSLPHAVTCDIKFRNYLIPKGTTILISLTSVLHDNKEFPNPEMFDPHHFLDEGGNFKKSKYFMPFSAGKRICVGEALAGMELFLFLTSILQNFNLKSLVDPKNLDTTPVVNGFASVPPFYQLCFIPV
# Protocol: as §1
# [11] = system: Mucor janssenii; assay: MIC against moulds; assay type: cell-based; details: 6 isolates
# [12] = system: Different Moulds; assay: Average MIC against different moulds; assay type: cell-based; set-up: MICavg moulds (159 strains): unit not given beside the values; details: for MIC: 157 isolates
# [13] = biological target: T1, CYP2C19 (Homo sapiens, UniProt P33261); assay: CYP Inhibition; assay type: in vitro ADME; details: human liver microsome; for P450 2C19 % Inhibition: 10 um
# T1 construct: 158 ul of human liver microsome (HLM) was added to all the wells; from tissue; host or cells: human liver microsomes
# T1 sequence (P33261 whole entry): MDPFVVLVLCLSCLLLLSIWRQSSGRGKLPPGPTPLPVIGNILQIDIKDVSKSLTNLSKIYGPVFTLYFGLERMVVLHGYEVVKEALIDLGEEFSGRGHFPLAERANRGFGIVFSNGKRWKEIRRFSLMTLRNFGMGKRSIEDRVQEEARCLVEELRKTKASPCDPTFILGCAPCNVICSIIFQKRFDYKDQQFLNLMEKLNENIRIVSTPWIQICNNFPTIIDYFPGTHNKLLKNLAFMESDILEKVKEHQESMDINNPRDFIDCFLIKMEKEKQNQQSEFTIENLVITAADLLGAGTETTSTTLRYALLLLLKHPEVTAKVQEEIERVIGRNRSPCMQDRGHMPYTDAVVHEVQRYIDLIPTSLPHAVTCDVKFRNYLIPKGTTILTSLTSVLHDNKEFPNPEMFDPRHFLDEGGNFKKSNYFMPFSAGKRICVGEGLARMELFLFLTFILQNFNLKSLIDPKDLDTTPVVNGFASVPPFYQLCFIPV
# [14] = Solubility in D5W; details: for Solubility in D5W: 5% dextrose in water, room temperature; for Fold of Increase w.r.t. AmB (solubility): D5W
# [15] = system: Different Yeasts; assay: Average MIC against different yeasts; assay type: cell-based; set-up: MICavg yeast (46 strains): unit not given beside the values; details: for MIC: 46 isolates
# [16] = system: Candida albicans SN250; assay: Mouse model of invasive candidiasis (kidney CFU); details: for Mouse candidiasis model: 5 mpk
# [17] = system: Fusarium solani; assay: MIC against moulds; assay type: cell-based; details: 6 isolates
# [18] = system: Fonsecaea sp.; assay: MIC against moulds; assay type: cell-based; details: 6 isolates
# [19] = system: A. tubingensis; assay: MIC against moulds; assay type: cell-based; details: 6 isolates
# [20] = system: Mucor velutinosus; assay: MIC against moulds; assay type: cell-based; details: 6 isolates
# [21] = system: Licht. Corymbifera; assay: MIC against moulds; assay type: cell-based; details: 6 isolates
# [22] = system: A. flavus; assay: MIC against moulds; assay type: cell-based; details: 6 isolates
# [23] = system: Claophialophora bantiana; assay: MIC against moulds; assay type: cell-based; details: 6 isolates
# [24] = system: Syncephalastrum sp.; assay: MIC against moulds; assay type: cell-based; details: 6 isolates
# [25] = system: Cryptococcus neoformans; assay: MIC against yeasts; assay type: cell-based; details: 10 isolates
# [26] = system: Sporothrix schenckii; assay: MIC against rare moulds resistant to AmB; assay type: cell-based; details: 6 isolates
# [27] = system: Cryptococcus gattii; assay: MIC against yeasts; assay type: cell-based; details: 10 isolates
# [28] = system: P. variotii MYA-3630 (QC); assay: MIC against moulds; assay type: cell-based; details: 5 isolates
# [29] = system: Blastomyces dermatitidis; assay: MIC against moulds; assay type: cell-based; details: 5 isolates
# [30] = system: Rhodotorula sp.; assay: MIC against yeasts; assay type: cell-based; details: 6 isolates
# [31] = system: Candida auris; assay: MIC against yeasts; assay type: cell-based; details: 10 isolates
# [32] = system: Coccidioides posadasii; assay: microbe, parasite or virus in culture; assay type: cell-based
# [33] = human, human liver microsomes, probe 5 in 1 substrate cocktail (substrates not named)
structure (smiles),measurement,setting,value
CC1C=CC=CC=CC=CC=CC=CC=CC(OC2OC(C)C(O)C(N)C2O)CC2OC(O)(CC(O)CC(O)C(O)CCC(O)CC(O)CC(=O)OC(C)C(C)C1O)CC(O)C2C(=O)NCCF (centres unmarked) [Compound BM],MIC,[1],1 µM
same,MIC,[2],1.83 µM
same,MIC,[3],>16 µM
same,MIC,[4],1.5 µM
same,MICavg moulds (3 strains),[5],1.7
same,Binds Cholesterol,[6],No
same,MIC Histoplasma capsulatum,[7],0.06 µM
same,P450 2D6 % Inhibition,[8],2.1%
same,P450 3A4 % Inhibition,[9],12.4%
same,P450 2C9 % Inhibition,[10],89.1%
same,MIC,[11],0.92 µM
same,MICavg moulds (159 strains),[12],2.2
same,MIC,[12],2.3 µM
same,P450 2C19 % Inhibition,[13],19.7%
same,Solubility in D5W,[14],150 µM
same,Fold of Increase w.r.t. AmB (solubility),[14],6.5
same,MICavg yeast (46 strains),[15],2.3
same,MIC,[15],2.3 µM
same,Mouse candidiasis model,[16],5.7 Log (CFU/mL)
same,MIC,[17],8.8 µM
same,MIC,[18],<0.03 µM
same,MIC,[19],0.92 µM
same,MIC,[20],0.92 µM
same,MIC,[21],1 µM
same,MIC,[22],2.5 µM
same,MIC,[23],1 µM
same,MIC,[24],1 µM
same,MIC,[25],2 µM
same,MIC,[26],6.67 µM
same,MIC,[27],2 µM
same,MIC,[28],2.67 µM
same,MIC,[29],0.5 µM
same,MIC,[30],3.3 µM
same,MIC,[31],2.4 µM
same,MIC Coccidioides posadasii,[32],0.42 µM
CC1C=CC=CC=CC=CC=CC=CC=CC(OC2OC(C)C(O)C(N)C2O)CC2OC(O)(CC(O)CC(O)C(O)CCC(O)CC(O)CC(=O)OC(C)C(C)C1O)CC(O)C2C(=O)NCCO (centres unmarked) [Compound BA],MIC,[1],1.1 µM
same,MIC,[2],2 µM
same,MIC,[3],>16 µM
same,MIC,[4],1.67 µM
same,MICavg moulds (3 strains),[5],1.3
same,Binds Cholesterol,[6],No
same,Cholesterol Binding,[6],No
same,MIC Histoplasma capsulatum,[7],0.06 µM
same,P450 2D6 % Inhibition,[8],2.74% and 2.77%
same,P450 3A4 % Inhibition,[9],15.7%
same,P450 2C9 % Inhibition,[10],18.7%
same,MIC,[11],0.92 µM
same,MICavg moulds (159 strains),[12],2.3
same,MIC,[12],2.3 µM
same,P450 2C19 % Inhibition,[13],26.0%
same,Solubility in D5W,[14],>2600 µM
same,Fold of Increase w.r.t. AmB (solubility),[14],>113
same,MICavg yeast (46 strains),[15],2.5
same,MIC,[15],2.5 µM
same,Mouse candidiasis model,[16],6.3 Log (CFU/mL)
same,Efficacy in mouse model of invasive candidiasis,[16]; in vivo,Highly Efficacious
same,MIC,[17],8.67 µM
same,MIC,[18],0.06 µM
same,MIC,[19],0.92 µM
same,MIC,[20],1.25 µM
same,MIC,[21],1 µM
same,MIC,[22],2.67 µM
same,MIC,[23],2 µM
same,MIC,[24],1 µM
same,MIC,[25],2 µM
same,MIC,[26],6 µM
same,MIC,[27],2 µM
same,MIC,[28],2.7 µM
same,MIC,[29],0.6 µM
same,MIC,[30],3.3 µM
same,MIC,[31],2.8 µM
same,MIC Coccidioides posadasii,[32],0.46 µM
"C[C@@H]1[C@H](O)[C@@H](C)/C=C/C=C/C=C/C=C/C=C/C=C/C=C/[C@H](OC2O[C@H](C)[C@@H](O)[C@H](N)[C@@H]2O)C[C@@H]2O[C@](O)(C[C@@H](O)C[C@@H](O)[C@H](O)CC[C@@H](O)C[C@@H](O)CC(=O)O[C@H]1C)C[C@H](O)[C@H]2C(=O)O (some centres unmarked) [AmB, Amphotericin B]",MIC,[1],0.15 µM
same,MIC,[2]; Aspergillus fumigatus,0.71 µM
same,MIC,[3]; Purpureocillium lilacinum,> 16 µM
same,MIC,[4],1.5 µM
same,MICavg moulds (3 strains),[5],0.92
same,Binds Cholesterol,[6],Yes
same,Cholesterol Binding,[6],Yes
same,MIC,"[7]; Histoplasma capsulatum, read-out: MIC Histoplasma capsulatum",0.06 µM
same,"inhibition at 10 min, 10 µM",[8]; [33],2.3%
same,"inhibition at 10 min, 10 µM",[9]; [33],8.1%
same,"inhibition at 10 min, 10 µM","[10]; human, human liver microsomes, probe 5 in 1 substrate cocktail",4.1%
same,MIC,[11]; Mucor janssenii,0.06 µM
same,MICavg moulds (159 strains),[12],0.9
same,MIC,[12],0.9 µM
same,"inhibition at 10 min, 10 µM","[13]; human liver microsomes, probe 5 in 1 substrate cocktail (substrates not named), read-out: P450 2C19 % Inhibition",7.3%
same,solubility,"[14]; 5% dextrose in water (D5W), saline or isotonic, thermodynamic from solid",23 µM
same,MICavg yeast (46 strains),[15],0.9
same,MIC,[15],0.9 µM
same,Mouse candidiasis model,[16],5.2 Log (CFU/mL)
same,MIC,[17]; Fusarium solani,1.33 µM
same,MIC,[18]; Fonsecaea,< 0.03 µM
same,MIC,[19]; Aspergillus tubingensis,0.125 µM
same,MIC,[20]; Mucor velutinosus,0.08 µM
same,MIC,[21]; Lichtheimia corymbifera,0.23 µM
same,MIC,[22]; Aspergillus flavus,1.16 µM
same,MIC,[23],0.375 µM
same,MIC,[24]; Syncephalastrum,0.06 µM
same,MIC,[25]; Cryptococcus neoformans,0.55 µM
same,MIC,[26]; Sporothrix schenckii,4 µM
same,MIC,[27]; Cryptococcus gattii,0.75 µM
same,MIC,[28]; Paecilomyces variotii,1 µM
same,MIC,[29]; Blastomyces dermatitidis,< 0.03 µM
same,MIC,[30]; Rhodotorula,1 µM
same,MIC,[31]; Candidozyma auris,1.2 µM
same,MIC,"[32]; Coccidioides posadasii, read-out: MIC Coccidioides posadasii",0.06 µM

# — patent publication US20230016424A1, “HYBRID AMIDE DERIVATIVES OF AMPHOTERICIN B” (The Board of Trustees of the University of Illinois, priority 2019, published 2023)
